Source: article PMC9681820, “A PDE10A inhibitor CPL500036 is a novel agent modulating striatal function devoid of most neuroleptic side-effects” (Frontiers in Pharmacology, 2022)
Read-outs that look alike come from different tables or passages of the source.

Experiments:
[1] = test system: Escherichia coli WP2 uvrA; test: Ames test; settings: CPL500036 5000µg/plate, n=3
[2] = test system: voltage-gated sodium channels site 2; test: SafetyScreen44 radioligand binding; design: species or system rat; settings: 1 μM
Method: (§1) The SafetyScreen44® assay was carried out by Eurofins (Poitiers, France) according to the service-provider’s protocol. CPL500036 (1 µM) was tested against a panel of […] potential off-targets proteins, including G protein-coupled receptors (GPCRs), transporters, ion channels, nuclear receptors kinases and other non-kinase enzymes, by use of a set of the binding assays.
(§2) Binding of CPL500036 was calculated as the percent binding inhibition of a radioactively labeled ligand specific for each target. Enzyme inhibition of CPL500036 was calculated as the percent inhibition of the activity of the control enzyme. “No interaction” was denoted if inhibition ≤ 25% of specific binding of the control. Determination of muscarinic acetylcholine receptor (M2) activity induced by CPL500036 (antagonism and agonism) was undertaken in human recombinant CHO cells by measurement of the intracellular cAMP level according to the service-provider’s protocol. IC50 (concentration causing a half-maximal inhibition of specific binding of the control) or EC50 (concentration causing a half-maximal response of specific binding of the control) and the Hill coefficient were determined by non-linear regression analysis of the competition curves generated with mean replicate values using Hill-equation curve fitting with software developed at Cerep (Celle-Lévescault, France).

[3] = test system: α-dendrotoxin sensitive potassium channel; test: SafetyScreen44 radioligand binding; design: species or system rat; settings: 1 μM
Method: as §1, §2

[4] = test system: calcium channel, voltage-dependent, L type; test: SafetyScreen44 radioligand binding; design: species or system rat; settings: 1 μM
Method: as §1, §2

[5] = test system: N-Methyl-D-aspartic acid receptor; test: SafetyScreen44 radioligand binding; design: species or system rat; settings: 1 μM
Method: as §1, §2

[6] = biological target: T1, δ-type opioid receptor ẟ2 (Homo sapiens, UniProt P41143); test: SafetyScreen44 radioligand binding; settings: agonist radioligand, read-out: % Inh (% inhibition of control specific binding)
T1 construct: purchased Eurofins Cerep (SafetyScreen44)
T1 sequence (P41143 whole entry): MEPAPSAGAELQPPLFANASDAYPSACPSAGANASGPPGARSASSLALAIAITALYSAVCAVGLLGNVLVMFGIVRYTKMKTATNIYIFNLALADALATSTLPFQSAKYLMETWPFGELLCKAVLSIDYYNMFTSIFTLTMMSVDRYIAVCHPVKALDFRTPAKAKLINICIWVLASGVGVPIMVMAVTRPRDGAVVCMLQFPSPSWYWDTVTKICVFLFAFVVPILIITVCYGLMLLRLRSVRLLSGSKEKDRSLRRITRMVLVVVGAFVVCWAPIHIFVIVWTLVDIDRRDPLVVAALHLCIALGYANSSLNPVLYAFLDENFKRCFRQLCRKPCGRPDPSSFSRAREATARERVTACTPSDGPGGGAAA
Method: as §1, §2

[7] = biological target: T2, alpha-2A adrenergic receptor (Homo sapiens, UniProt P08913); test: SafetyScreen44 radioligand binding; settings: read-out: % Inh (% inhibition of control specific binding)
T2 construct: purchased Eurofins Cerep (SafetyScreen44)
T2 sequence (P08913 whole entry): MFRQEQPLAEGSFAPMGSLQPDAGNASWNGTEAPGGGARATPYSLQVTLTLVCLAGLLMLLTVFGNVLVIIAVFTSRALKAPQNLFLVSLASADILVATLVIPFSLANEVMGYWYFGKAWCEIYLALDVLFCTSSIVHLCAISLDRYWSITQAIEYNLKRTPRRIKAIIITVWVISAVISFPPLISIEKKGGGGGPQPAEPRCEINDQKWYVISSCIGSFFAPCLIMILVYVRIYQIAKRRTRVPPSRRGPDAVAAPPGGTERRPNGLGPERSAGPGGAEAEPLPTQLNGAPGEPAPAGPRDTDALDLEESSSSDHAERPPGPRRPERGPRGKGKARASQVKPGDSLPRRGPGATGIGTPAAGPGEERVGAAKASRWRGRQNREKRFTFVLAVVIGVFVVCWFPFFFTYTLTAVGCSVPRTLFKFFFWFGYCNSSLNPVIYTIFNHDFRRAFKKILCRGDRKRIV
Method: as §1, §2

[8] = biological target: T3, µ -type opioid receptor (Homo sapiens, UniProt P35372); test: SafetyScreen44 radioligand binding; settings: agonist radioligand, read-out: % Inh (% inhibition of control specific binding)
T3 construct: purchased Eurofins Cerep (SafetyScreen44)
T3 sequence (P35372 whole entry): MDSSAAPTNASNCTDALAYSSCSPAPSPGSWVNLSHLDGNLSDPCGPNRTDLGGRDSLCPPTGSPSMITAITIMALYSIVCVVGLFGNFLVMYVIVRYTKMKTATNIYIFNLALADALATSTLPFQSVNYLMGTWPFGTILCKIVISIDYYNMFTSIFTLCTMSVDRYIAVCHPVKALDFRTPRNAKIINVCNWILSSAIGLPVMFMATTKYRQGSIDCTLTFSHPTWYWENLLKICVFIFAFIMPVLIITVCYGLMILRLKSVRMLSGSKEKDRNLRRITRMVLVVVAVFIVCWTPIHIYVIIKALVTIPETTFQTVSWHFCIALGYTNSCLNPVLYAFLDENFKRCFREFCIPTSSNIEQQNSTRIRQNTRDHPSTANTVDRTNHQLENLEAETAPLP
Method: as §1, §2

[9] = biological target: T4, cannabinoid receptor type 1 (Homo sapiens, UniProt P21554); test: SafetyScreen44 radioligand binding; settings: agonist radioligand, read-out: % Inh (% inhibition of control specific binding)
T4 construct: purchased Eurofins Cerep (SafetyScreen44)
Method: as §1, §2

[10] = biological target: T5, androgen receptor (Homo sapiens, UniProt P10275, T878A); test: SafetyScreen44 radioligand binding; settings: agonist radioligand, read-out: % Inh (% inhibition of control specific binding)
T5 construct: purchased Eurofins Cerep (SafetyScreen44)
Method: as §1, §2

[11] = biological target: T6, cannabinoid receptor type 2 (Homo sapiens, UniProt P34972); test: SafetyScreen44 radioligand binding; settings: agonist radioligand, read-out: % Inh (% inhibition of control specific binding)
T6 construct: purchased Eurofins Cerep (SafetyScreen44)
Method: as §1, §2

[12] = test system: unilateral rat model of Parkinson’s disease; design: method as in Lenda et al., 2021; settings: Parkinson’s disease animal model; ref Lenda et al., 2021; cited from earlier work
[13] = test system: Beagle dogs; test: In vivo cardiovascular safety, telemetry; settings: 1.5 mg/kg, 10 mg/kg or 30 mg/kg, p.o., n = 4, free-base form
Text: Four male Beagle dogs who had been implanted previously with telemetry transmitter devices (Data Sciences, Saint Paul, MN, United States) were used. The number of animals corresponds to the standard approach used for such studies ([Smith et al., 2002]; [Authier et al., 2020]) and includes the accepted study sensitivity and ethics for use of nonrodent species ([ICH S7A Safety Pharmacology Studies for Human Pharmaceuticals, 2001]; [Smith et al., 2002]; [Authier et al., 2020]). The study consisted of four acquisition sessions using a crossover design with dosing intervals of ≥ 48 h. In each experimental session, each dog received (via oral gavage) a different treatment: either vehicle or CPL500036 (1.5 mg/kg, 10 mg/kg or 30 mg/kg). Cardiovascular safety was assessed on arterial blood pressure (systolic, diastolic and mean), heart rate (HR) and electrocardiography (RR interval, PR interval, QRS duration, uncorrected QT and corrected QT (QTc) for heart rate using van de Water correction) acquired continuously for ≥ 2 h before dosing, and for ≥ 24 h post-dose. All parameters were evaluated before and at 13-time points after treatment (15 min, 30 min as well as 1 h, 2 h, 3 h, 4 h, 5 h, 6 h, 8 h,12 h, 16 h, 20 h, and 24 h after dosing).

[14] = test system: Salmonella typhimurium TA100; settings: CPL500036 5000µg/plate, n=3
[15] = biological target: hERG (Homo sapiens, UniProt Q12809); test: hERG tail current, manual patch-clamp in hERG-HEK-293 transfected cells; assay type: cell-based
hERG, sequence (Q12809 whole entry): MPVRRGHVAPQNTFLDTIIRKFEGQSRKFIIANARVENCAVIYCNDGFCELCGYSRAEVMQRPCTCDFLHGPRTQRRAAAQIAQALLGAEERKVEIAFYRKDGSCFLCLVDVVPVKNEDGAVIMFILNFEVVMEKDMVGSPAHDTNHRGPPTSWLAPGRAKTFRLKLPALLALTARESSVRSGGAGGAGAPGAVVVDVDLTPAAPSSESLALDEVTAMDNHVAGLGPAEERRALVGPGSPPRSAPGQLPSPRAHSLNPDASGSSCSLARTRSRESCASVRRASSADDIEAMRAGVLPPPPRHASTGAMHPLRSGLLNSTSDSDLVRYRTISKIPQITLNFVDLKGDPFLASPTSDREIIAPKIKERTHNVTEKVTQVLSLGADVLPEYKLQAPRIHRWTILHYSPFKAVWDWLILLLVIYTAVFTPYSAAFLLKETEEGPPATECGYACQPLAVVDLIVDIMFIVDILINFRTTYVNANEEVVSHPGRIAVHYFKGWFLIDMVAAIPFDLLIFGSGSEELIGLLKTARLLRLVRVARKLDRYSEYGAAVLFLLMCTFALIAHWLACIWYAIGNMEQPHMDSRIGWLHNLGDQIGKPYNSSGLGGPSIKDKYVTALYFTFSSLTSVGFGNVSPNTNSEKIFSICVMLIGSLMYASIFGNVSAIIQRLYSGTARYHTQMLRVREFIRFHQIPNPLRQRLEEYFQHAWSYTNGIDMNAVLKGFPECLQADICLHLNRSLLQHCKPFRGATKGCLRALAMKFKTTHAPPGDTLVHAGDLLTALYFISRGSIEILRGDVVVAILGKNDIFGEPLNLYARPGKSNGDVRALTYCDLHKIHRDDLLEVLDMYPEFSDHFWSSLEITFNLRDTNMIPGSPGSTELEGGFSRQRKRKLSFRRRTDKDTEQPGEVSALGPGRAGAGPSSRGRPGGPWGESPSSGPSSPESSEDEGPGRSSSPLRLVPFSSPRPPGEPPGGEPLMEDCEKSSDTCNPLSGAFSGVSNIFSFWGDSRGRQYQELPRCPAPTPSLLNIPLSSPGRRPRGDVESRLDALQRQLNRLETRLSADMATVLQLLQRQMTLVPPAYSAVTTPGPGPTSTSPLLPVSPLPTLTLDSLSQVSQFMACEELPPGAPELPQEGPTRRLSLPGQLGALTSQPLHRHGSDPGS
Method: The dose-dependent effect of CPL500036 (10^–7 M–10^–5 M) on hERG current was conducted at Centre De Recherches Biologiques (CERB; Baugy, France) using the whole hERG-HEK-293 transfected cell system and manual patch-clamp method. […] Cells were clamped to −80 mV, depolarized to 0 mV for 5 s (to allow activation of hERG current) and repolarized to −50 mV for 5 s (to allow hERG tail current to deactivate). This experimental procedure was repeated at a frequency of 0.06 Hz. Currents were filtered at 1 kHz and acquired at a frequency of 2 kHz. The amplitude of hERG tail current was measured during the repolarizing pulse from 0 mV to −50 mV. […] Currents were measured before and after exposure to CPL500036.

[16] = biological target: T7, Cyclooxygenase 1 (Homo sapiens, UniProt P23219); test: SafetyScreen44 enzyme inhibition; assay type: biochemical; settings: read-out: % Inh (percent inhibition of the activity of the control enzyme)
T7 construct: purchased Eurofins Cerep (SafetyScreen44)
T7 sequence (P23219 24-599): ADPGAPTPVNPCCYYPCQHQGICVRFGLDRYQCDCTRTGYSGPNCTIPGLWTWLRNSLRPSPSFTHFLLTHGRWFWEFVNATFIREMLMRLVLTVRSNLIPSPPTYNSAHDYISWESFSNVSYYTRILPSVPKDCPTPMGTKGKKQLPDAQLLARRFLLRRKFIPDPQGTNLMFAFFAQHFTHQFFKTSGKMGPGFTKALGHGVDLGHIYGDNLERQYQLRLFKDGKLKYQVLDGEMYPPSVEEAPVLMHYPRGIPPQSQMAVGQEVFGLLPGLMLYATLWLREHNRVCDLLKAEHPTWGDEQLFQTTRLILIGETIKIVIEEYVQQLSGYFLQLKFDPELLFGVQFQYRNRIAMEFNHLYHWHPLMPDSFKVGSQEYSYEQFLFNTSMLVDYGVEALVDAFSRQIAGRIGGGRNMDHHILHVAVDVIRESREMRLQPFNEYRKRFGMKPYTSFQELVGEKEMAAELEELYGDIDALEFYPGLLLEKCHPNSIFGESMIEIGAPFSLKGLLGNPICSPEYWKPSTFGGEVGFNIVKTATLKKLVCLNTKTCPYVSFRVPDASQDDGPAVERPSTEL
Method: as §1, §2

[17] = biological target: T8, Acetylcholinesterase (Homo sapiens, UniProt P22303); test: SafetyScreen44 enzyme inhibition; assay type: biochemical; settings: read-out: % Inh (percent inhibition of the activity of the control enzyme)
T8 construct: purchased Eurofins Cerep (SafetyScreen44)
Method: as §1, §2

[18] = biological target: T9, Cyclooxygenase 2 (Homo sapiens, UniProt P35354); test: SafetyScreen44 enzyme inhibition; assay type: biochemical; settings: read-out: % Inh (percent inhibition of the activity of the control enzyme)
T9 construct: purchased Eurofins Cerep (SafetyScreen44)
T9 sequence (P35354 18-604): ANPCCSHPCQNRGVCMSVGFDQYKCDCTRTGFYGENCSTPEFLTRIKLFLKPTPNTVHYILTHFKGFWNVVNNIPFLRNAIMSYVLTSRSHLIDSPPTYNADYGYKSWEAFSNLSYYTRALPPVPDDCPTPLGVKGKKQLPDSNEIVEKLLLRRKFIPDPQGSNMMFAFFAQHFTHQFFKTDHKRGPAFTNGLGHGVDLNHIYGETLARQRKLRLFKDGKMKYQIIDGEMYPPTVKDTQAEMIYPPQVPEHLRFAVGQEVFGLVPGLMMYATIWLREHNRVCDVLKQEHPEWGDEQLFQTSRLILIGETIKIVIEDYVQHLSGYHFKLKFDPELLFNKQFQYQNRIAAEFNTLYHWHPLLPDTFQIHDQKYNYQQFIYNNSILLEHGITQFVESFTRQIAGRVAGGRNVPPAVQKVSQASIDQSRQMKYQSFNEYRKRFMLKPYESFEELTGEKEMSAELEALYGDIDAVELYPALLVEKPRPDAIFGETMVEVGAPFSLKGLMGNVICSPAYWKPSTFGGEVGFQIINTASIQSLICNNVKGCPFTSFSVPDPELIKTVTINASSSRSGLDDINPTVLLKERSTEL
Method: as §1, §2

[19] = biological target: T10, phosphodiesterase 3A (Homo sapiens, UniProt Q14432); test: SafetyScreen44 enzyme inhibition; assay type: biochemical; settings: read-out: % Inh (percent inhibition of the activity of the control enzyme)
T10 construct: purchased Eurofins Cerep (SafetyScreen44)
Method: as §1, §2

[20] = biological target: T11, phosphodiesterase 4 (Homo sapiens, UniProt Q08499); test: SafetyScreen44 enzyme inhibition; assay type: biochemical; settings: read-out: % Inh (percent inhibition of the activity of the control enzyme)
T11 construct: purchased Eurofins Cerep (SafetyScreen44)
T11 sequence (Q08499 whole entry): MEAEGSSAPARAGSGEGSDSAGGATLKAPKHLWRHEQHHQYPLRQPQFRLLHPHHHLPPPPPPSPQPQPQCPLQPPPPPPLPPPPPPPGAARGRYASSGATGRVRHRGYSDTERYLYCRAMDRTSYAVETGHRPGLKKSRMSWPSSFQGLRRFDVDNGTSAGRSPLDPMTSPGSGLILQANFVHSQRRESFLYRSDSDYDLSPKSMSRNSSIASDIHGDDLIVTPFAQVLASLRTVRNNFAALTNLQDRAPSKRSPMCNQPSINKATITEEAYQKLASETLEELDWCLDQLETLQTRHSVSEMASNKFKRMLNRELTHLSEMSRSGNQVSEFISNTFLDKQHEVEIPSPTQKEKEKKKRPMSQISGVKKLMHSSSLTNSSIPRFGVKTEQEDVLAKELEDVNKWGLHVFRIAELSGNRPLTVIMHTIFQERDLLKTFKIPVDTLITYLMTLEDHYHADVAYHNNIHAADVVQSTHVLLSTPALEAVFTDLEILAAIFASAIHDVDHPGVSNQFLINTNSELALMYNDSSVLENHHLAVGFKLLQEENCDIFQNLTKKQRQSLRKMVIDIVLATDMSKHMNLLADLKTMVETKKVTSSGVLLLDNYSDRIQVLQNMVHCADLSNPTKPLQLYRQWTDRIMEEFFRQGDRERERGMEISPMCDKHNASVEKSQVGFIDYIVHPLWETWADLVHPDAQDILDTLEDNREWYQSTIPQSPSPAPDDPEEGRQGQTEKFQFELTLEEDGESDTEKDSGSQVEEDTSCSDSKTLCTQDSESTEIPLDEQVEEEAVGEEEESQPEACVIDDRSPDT
Method: as §1, §2

[21] = biological target: T12, lymphocyte-specific protein tyrosine kinase (Homo sapiens, UniProt P06239); test: SafetyScreen44 enzyme inhibition; assay type: biochemical; settings: read-out: % Inh (percent inhibition of the activity of the control enzyme)
T12 construct: purchased Eurofins Cerep (SafetyScreen44)
T12 sequence (P06239 whole entry): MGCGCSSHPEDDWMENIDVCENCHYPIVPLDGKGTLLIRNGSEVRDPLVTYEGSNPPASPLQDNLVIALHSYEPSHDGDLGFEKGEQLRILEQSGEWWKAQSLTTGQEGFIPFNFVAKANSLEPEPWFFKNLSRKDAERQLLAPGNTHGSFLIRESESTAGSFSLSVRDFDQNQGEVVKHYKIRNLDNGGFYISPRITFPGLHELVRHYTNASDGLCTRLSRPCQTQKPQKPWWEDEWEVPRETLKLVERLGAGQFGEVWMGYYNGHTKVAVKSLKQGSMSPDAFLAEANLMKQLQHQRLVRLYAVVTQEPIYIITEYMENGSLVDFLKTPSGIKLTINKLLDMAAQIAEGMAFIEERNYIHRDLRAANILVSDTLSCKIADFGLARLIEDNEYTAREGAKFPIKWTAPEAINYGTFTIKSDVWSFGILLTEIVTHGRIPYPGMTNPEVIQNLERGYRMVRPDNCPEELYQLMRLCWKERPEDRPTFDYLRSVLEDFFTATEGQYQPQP
Method: as §1, §2

[22] = With metabolic activation (+S9 mix), 2AA 2µg/plate
[23] = Without metabolic activation (-S9 mix), MMS 2µg/plate
[24] = Without metabolic activation (-S9 mix), SAZ 2µg/plate

For `Cc1ncc(C)n2nc(-c3ccn4cc(-c5ccccc5)nc4n3)nc12` [CPL500036, 7-[5,8-Dimethyl-(1,2,4)triazolo (1,5-a)pyrazin-2-yl]-2-phenylimidazo (1,2-a) pyrimidine], the Mutation rate [1, 22] was 1.76, the “Revertants Mean±SD” value [1, 22] was 42.3±2.89 and the Mutation rate [1, 23] was 1.12. For the same compound, the “Revertants Mean±SD” value [1, 23] was 22.3±2.08, the “% Inh (% inhibition of control specific binding)” value [2] was −1.3% and the “% Inh (% inhibition of control specific binding)” value [3] was −10.2%. For the same compound, the “% Inh (% inhibition of control specific binding)” value [4] was −7.2%, the “% Inh (% inhibition of control specific binding)” value [5] was 4.4% and the inhibition at 1 µM [6] was 6.9%. For the same compound, the inhibition at 1 µM [7] was 0.4%, the inhibition at 1 µM [8] was -1.1% and the inhibition at 1 µM [9] was 8.8%. For the same compound, the inhibition at 1 µM [10] was 5.3%, the inhibition at 1 µM [11] was -14.6% and the “dose showing therapeutic activity” value [12] was 0.1 mg/kg. For the same compound, the “electrocardiography parameters (particularly QTcv and QRS duration)” value [13] was “Noticeable alterations in any of the electrocardiography parameters analyzed (particularly QTcv and QRS duration) were not observed”, the heart rate [13] was “significant differences were not seen compared with the vehicle control group” and the “systolic, diastolic and mean blood pressures” value [13] was “Remarkable variations in systolic, diastolic and mean blood pressures were not recorded”. The Mutation rate [14, 22] was 0.82, the “Revertants Mean±SD” value [14, 22] was 62.3±9.02 and the Mutation rate [14, 24] was 1.02. For the same compound, the “Revertants Mean±SD” value [14, 24] was 66.3±1.08, the “hERG IC25 relative to the IC50 for PDE10A” value [15] was > 3,000 times and the “IC25, inhibition of hERG tail current” value ([15]; hERG-HEK-293 transfected cells, manual patch-clamp, mean ± SD, n = 3) was 3.2 ± 1.6 µM. For the same compound, the inhibition at 1 µM [16] was -9.5%, the inhibition at 1 µM [17] was 13.7% and the inhibition at 1 µM [18] was -0.4%. It also gave an inhibition at 1 µM [19] of -15.2%, an inhibition at 1 µM [20] of 0.8% and an inhibition at 1 µM [21] of -1.9%.
